{"source": "paper PMC3177945", "about": "(Bioorganic & medicinal chemistry letters, 2010)", "target": "AmpC β-lactamase (Escherichia coli, UniProt P00811)", "sequence (P00811 20-377)": "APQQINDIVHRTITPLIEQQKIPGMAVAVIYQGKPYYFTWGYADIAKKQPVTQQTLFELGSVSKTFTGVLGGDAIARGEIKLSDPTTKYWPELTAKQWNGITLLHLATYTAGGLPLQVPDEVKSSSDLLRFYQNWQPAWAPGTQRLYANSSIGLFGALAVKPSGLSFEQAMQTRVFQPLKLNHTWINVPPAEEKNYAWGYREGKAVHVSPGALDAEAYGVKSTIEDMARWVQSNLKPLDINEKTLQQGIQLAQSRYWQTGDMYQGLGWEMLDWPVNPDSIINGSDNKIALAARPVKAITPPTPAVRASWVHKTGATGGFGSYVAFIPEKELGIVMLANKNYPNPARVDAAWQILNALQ", "assay": "biochemical", "assay_type": "biochemical", "data": [{"smiles": "Cc1noc(C)c1S(=O)(=O)Nc1cc(B(O)O)ccc1C(=O)O", "note": "[compound 12]", "values": [{"measurement": "increase of affinity for AmpC compared to non-carboxylate analog", "setting": "4-carboxy derivative vs non-carboxylate analog (6–9, 1)", "result": "performed worse with respect to its analog"}]}, {"smiles": "O=C(O)c1ccc(C(=O)Nc2cccc(S(=O)(=O)Nc3cc(B(O)O)ccc3C(=O)O)c2)cc1", "note": "[compound 13]", "values": [{"measurement": "Ki", "result": 100, "unit": "nM"}]}]}
